Data taken from patent US20090012178A1, “Benzoxazocines and Their Therapeutic Use” (priority 2005, published 2009).
Where two headings read alike, the source gives them in different places.

Key:
5-HT Transporter = 5-HT Transporter (Homo sapiens, UniProt P31645); assay: 5-HT Transporter binding assay (SRI)
Method: (§1) CYP 2D6 inhibition assays were conducted according to the method of Ono et al. (1996—Xenobiotica, 26: 681-693). 5-HT Transporter binding assays were conducted according to the method of Tatsumi et al. (1997—Eur. J. Pharmacol., 340: 249-258). NA Transporter binding assays were conducted according to the method of Pacholczyk et al. (1991—Nature, 350: 350-354).

NA Transporter = NA Transporter (Homo sapiens, UniProt P23975); assay: NA Transporter binding assay (NRI)
Chain of NA Transporter (P23975 whole entry): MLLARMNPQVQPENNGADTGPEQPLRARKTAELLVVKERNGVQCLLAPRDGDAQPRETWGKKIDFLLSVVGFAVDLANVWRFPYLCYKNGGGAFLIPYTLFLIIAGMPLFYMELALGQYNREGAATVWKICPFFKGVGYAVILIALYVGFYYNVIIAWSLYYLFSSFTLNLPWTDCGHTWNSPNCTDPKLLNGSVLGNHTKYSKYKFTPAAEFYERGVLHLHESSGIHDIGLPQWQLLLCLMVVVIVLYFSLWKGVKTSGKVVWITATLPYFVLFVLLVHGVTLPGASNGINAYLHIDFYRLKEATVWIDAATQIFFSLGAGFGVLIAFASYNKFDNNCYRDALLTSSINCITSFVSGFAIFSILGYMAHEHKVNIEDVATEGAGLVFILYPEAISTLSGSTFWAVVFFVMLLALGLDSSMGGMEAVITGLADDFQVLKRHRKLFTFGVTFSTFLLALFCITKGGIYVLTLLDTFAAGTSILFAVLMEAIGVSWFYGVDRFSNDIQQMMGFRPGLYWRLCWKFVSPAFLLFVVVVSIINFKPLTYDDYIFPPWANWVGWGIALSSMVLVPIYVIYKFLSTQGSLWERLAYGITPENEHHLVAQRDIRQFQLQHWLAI
Method: as §1

CYP 2D6 = CYP 2D6 (Homo sapiens, UniProt P10635); assay: CYP 2D6 inhibition, substrate based assay; type: in vitro ADME
Chain of CYP 2D6 (P10635 whole entry): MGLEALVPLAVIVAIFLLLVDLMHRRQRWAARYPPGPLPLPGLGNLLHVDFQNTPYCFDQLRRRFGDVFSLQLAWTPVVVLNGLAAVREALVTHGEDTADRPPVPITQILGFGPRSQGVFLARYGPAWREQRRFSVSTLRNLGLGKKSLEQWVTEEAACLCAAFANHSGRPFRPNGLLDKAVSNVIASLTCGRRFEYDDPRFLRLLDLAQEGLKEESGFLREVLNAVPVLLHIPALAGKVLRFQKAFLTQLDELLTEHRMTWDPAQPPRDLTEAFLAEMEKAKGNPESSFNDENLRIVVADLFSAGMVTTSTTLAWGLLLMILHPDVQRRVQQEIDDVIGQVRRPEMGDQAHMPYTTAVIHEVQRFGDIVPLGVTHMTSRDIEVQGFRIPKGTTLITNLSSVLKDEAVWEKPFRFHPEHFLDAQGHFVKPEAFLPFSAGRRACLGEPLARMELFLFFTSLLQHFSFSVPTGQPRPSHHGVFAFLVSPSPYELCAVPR
Method: as §1

[1] = Mouse hotplate model of acute analgesia; type: in vivo; details: for Paw Latency (Sec) above control: 60 min before testing, * = statistical significance
Method: Compounds of the invention have also been evaluated in the mouse hotplate model of acute analgesia. Mice placed on a metallic hot plate will respond by paw licking or by jumping up from the plate (Eddy et al., 1950—J. Pharmacol. Exp. Ther.; 98:121-137). Analgesics increase nociceptive reaction latency.
Mice (17-23 g male Swiss mice ICO: OF1) were placed on a metallic hot plate maintained at 56±0.2° C. The nociceptive reaction latency, characterized by a licking reflex of the forepaws or by a jumping off the hot plate, was recorded. Plate heat cut-off time was 30 seconds. The test substances and vehicle were orally administered 60 min before testing. Results are given in Table 2 (nt=not tested; *denotes statistical significance achieved).

[2] = Formalin-induced paw licking in mouse; type: in vivo; details: * = statistical significance; for Nociception, Early Phase: licking time 0 to 5 minutes after formalin; for Nociception, Late Phase: licking time 20 to 30 minutes after formalin
Method: Compounds of the invention have also been evaluated in the formalin-induced paw licking model in mice. Compounds were evaluated for both an early stage response and a late stage response against duloxetine and nefopam as controls.
Inflammation was induced by subplantar injection of a 5% formalin solution (0.02 ml) into the mouse right hindpaw (20-25 g male Rj: NMRI). Hindpaw licking time was continuously recorded in a blinded fashion between 0 to 5 minutes (early phase) and between 20 to 30 minutes (late phase) after formalin injection (Hunskaar et al., 1985—J. Neurosci. Methods; 14:69-76).
The test substances and vehicle were orally administered 60 min before formalin injection. Results are given in Table 3 (nt=not tested; *denotes statistical significance achieved).

[3] = Morphine challenge assay (morphine-induced emesis in ferrets); type: in vivo, ferret; details: for % Reduction in no of retches/vomits: 3 mg/kg ip, 60 min before morphine 0.125 mg/Kg s.c., * = statistical significance; for anti-emetic activity in the morphine-induced emesis model (in words): ferrets
Method: In this respect, compounds of the invention retain the low side-effect potential of nefopam while having greater efficacy and more favourable pharmacokinetic parameters for chronic use.
Morphine was administered (0.125 mg/Kg s.c.) to albino or fitch male ferrets (0.9-1.7 kg) to induce emesis. Emesis was characterized by rhythmic abdominal contractions which were either associated with the oral expulsion of solid or liquid material from the gastrointestinal tract (ie vomiting) or not associated with the passage of material (i.e. retching movements). The number of highly distinctive abdominal contractions was counted.
The test substances and vehicle were administered by intraperitoneal injection 60 min before morphine administration. Results are given in Table 4 (*denotes statistical significance achieved).

Behavioural Despair Test = type: in vivo, mouse; details: 30 minutes before the test, * = statistical significance
Method: Compounds of the invention have been evaluated in the Behavioural Despair Test, a model which detects antidepressant activity.
The Behavioural Despair Test was conducted according to the method of Porsolt et al., (1977—Arch. Int. Pharmacodyn., 229:327-336). Mice forced to swim in a situation from which they cannot escape rapidly become immobile. Antidepressants decrease the duration of immobility.
Mice (20-27 g male Rj: NMRI) were individually placed in a cylinder (height=24 cm, diameter=13 cm) containing 10 cm water (22° C.), from which they cannot escape. The mice were placed in the water for 6 minutes and the duration of immobility during the last 4 minutes was measured. All compounds were administered i.p. 30 minutes before the test, and compared with a vehicle control group. Results are given in Table 5 (nt=not tested; *denotes statistical significance achieved).

Pharmacokinetic profile = type: in vivo; details: compared with nefopam
cytochrome P450 enzymes = assay: Metabolism by cytochrome P450 enzymes; type: in vitro ADME
[4] = read-out: CYP 2D6 inhibition IC50

Chain of 5-HT Transporter (P31645 whole entry): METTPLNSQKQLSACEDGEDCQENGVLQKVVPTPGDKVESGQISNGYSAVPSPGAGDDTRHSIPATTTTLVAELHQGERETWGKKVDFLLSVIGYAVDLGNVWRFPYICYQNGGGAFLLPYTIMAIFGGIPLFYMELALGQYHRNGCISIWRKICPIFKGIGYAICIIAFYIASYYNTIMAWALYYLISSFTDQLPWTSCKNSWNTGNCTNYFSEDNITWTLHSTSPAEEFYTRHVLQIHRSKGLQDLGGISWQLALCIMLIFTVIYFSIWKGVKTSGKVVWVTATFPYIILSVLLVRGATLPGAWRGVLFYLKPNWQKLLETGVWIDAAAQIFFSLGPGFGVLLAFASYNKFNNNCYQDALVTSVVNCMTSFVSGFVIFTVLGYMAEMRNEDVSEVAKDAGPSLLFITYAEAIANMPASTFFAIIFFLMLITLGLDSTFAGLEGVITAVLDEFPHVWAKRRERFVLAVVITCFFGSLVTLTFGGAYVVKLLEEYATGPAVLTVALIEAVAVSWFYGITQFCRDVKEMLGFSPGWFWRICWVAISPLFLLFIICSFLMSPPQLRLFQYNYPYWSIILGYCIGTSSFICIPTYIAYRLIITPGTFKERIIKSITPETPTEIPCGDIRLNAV

With `COc1cccc(C2OCCN(C)Cc3cc(C4CC4)ccc32)c1` (stereo not shown) [Example 4, 8-cyclopropyl-5-methyl-1-(3-methoxy)phenyl-1,3,4,6-tetrahydro-5H-benz[f]-2,5-oxazocine] as the compound, how does the IC50 (5-HT Transporter; read-out: IC50 vs SRI) read?
The IC50 was 0.021 µM.

And the IC50 (NA Transporter; read-out: IC50 as NRI)?
The IC50 was greater than 1 µM.

And the IC50 (NA Transporter; read-out: IC50 vs NRI)?
Its IC50 is greater than 1 µM.

And the IC50 (CYP 2D6)?
Its IC50 is greater than 10 µM.

And the IC50 (CYP 2D6; [4])?
The IC50 was 10 µM.

And the “Paw Latency (Sec) above control” value ([1]; 30 mg/kg po)?
The value was 5 s.

What about the “Paw Latency (Sec) above control” value ([1]; 60 mg/kg po) of the same compound?
Its value is 5 s.

For `COc1cccc(C2OCCN(C)Cc3cc(C4CC4)ccc32)c1` (single isomer, unassigned) [Example 3, 8-cyclopropyl-5-methyl-1-(3-methoxy)phenyl-1,3,4,6-tetrahydro-5H-benz[f]-2,5-oxazocine], which IC50 (5-HT Transporter) is on record?
The IC50 was 0.0052 µM.

And the IC50 (NA Transporter)?
Its IC50 is 0.046 µM.

What about the IC50 (CYP 2D6; [4]) of the same compound?
Its IC50 is 1.1 µM.

And the “Paw Latency (Sec) above control” value ([1]; 10 mg/kg po)?
Its value is 3 s.

What about the “Paw Latency (Sec) above control” value ([1]; 30 mg/kg po) of the same compound?
Its value is 6* Sec.

And the “Paw Latency (Sec) above control” value ([1]; 60 mg/kg po)?
Its value is 9* Sec.

What about the “Nociception, Early Phase” value ([2]; 30 mg/kg po) of the same compound?
Its value is −45%.

And the “Nociception, Late Phase” value ([2]; 30 mg/kg po)?
The value was −51%.

What about the “Nociception, Early Phase” value ([2]; 60 mg/kg po) of the same compound?
The value was −56%*.

And the “Nociception, Late Phase” value ([2]; 60 mg/kg po)?
The value was −73%*.

What about the “% Reduction in no of retches/vomits” value [3] of the same compound?
The value was 89%*.

And the “anti-emetic activity in the morphine-induced emesis model (in words)” value [3]?
Its value is “anti-emetic”.

Which IC50 (5-HT Transporter; read-out: IC50 vs SRI) does the source give for `COc1cccc([C@H]2OCCN(C)Cc3cc(C#N)ccc32)c1` [Example 2, (1R)-8-cyano-5-methyl-1-(3-methoxy)phenyl-1,3,4,6-tetrahydro-5H-benz[f]-2,5-oxazocine] here?
Its IC50 is 0.12 µM.

What about the IC50 (NA Transporter; read-out: IC50 vs NRI) of the same compound?
The IC50 was 3.8 µM.

And the IC50 (CYP 2D6)?
Its IC50 is 9.6 µM.

And the “Paw Latency (Sec) above control” value ([1]; 30 mg/kg po)?
The value was 6 s.

And the “Paw Latency (Sec) above control” value ([1]; 60 mg/kg po)?
Its value is 1 s.

For `CN(C)CCCN1c2ccccc2CCc2ccccc21` [Imipramine], which “Duration of Immobility (% change from ctrl)” value (Behavioural Despair Test; 32 mg/kg ip) is on record?
The value was −62* %.

For `COc1cccc(C2OCCN(C)Cc3cc(C#N)ccc32)c1` (single isomer, unassigned) [Example 1], which IC50 (5-HT Transporter) is on record?
The IC50 was 0.0089 µM.

What about the IC50 (NA Transporter; read-out: IC50 vs NRI) of the same compound?
Its IC50 is 0.4 µM.

What about the IC50 (CYP 2D6) of the same compound?
Its IC50 is 5.7 µM.

What about the “efficacy in the mouse hot-plate model (in words)” value [1] of the same compound?
The value was “greater efficacy than the racemate”.

And the “Paw Latency (Sec) above control” value ([1]; 10 mg/kg po)?
Its value is 9* Sec.

What about the “Paw Latency (Sec) above control” value ([1]; 30 mg/kg po) of the same compound?
The value was 5 s.

And the “Paw Latency (Sec) above control” value ([1]; 60 mg/kg po)?
Its value is 7* Sec.

And the “Nociception, Early Phase” value ([2]; 30 mg/kg po)?
The value was −49%.

And the “Nociception, Late Phase” value ([2]; 30 mg/kg po)?
Its value is −46%.

What about the “Nociception, Early Phase” value ([2]; 60 mg/kg po) of the same compound?
Its value is −75%*.

What about the “Nociception, Late Phase” value ([2]; 60 mg/kg po) of the same compound?
The value was −88%*.

And the “% Reduction in no of retches/vomits” value [3]?
Its value is 91%*.

What about the “anti-emetic activity in the morphine-induced emesis model (in words)” value [3] of the same compound?
The value was “anti-emetic”.

And the “Duration of Immobility (% change from ctrl)” value (Behavioural Despair Test; 10 mg/kg ip)?
The value was −24* %.

What about the “Duration of Immobility (% change from ctrl)” value (Behavioural Despair Test; 20 mg/kg ip) of the same compound?
Its value is −8%.

And the “Duration of Immobility (% change from ctrl)” value (Behavioural Despair Test; 40 mg/kg ip)?
The value was −61* %.

And the “Duration of Immobility (% change from ctrl)” value (Behavioural Despair Test; 80 mg/kg ip)?
Its value is −85* %.

What about the “pharmacokinetic profile (in words)” value (Pharmacokinetic profile) of the same compound?
The value was “greatly improved pharmacokinetic profile over the parent compound nefopam”.

What about the “metabolism by cytochrome P450 enzymes (in words)” value (cytochrome P450 enzymes) of the same compound?
The value was “metabolised by a range of cytochrome P450 enzymes”.

With `CNCC[C@H](Oc1cccc2ccccc12)c1cccs1` [Duloxetine] as the compound, how does the “Nociception, Early Phase” value ([2]; 30 mg/kg po) read?
The value was −49%.

And the “Nociception, Late Phase” value ([2]; 30 mg/kg po)?
Its value is −85%*.

And the “Duration of Immobility (% change from ctrl)” value (Behavioural Despair Test; 10 mg/kg ip)?
The value was −6%.

And the “Duration of Immobility (% change from ctrl)” value (Behavioural Despair Test; 20 mg/kg ip)?
Its value is −9%.

What about the “Duration of Immobility (% change from ctrl)” value (Behavioural Despair Test; 40 mg/kg ip) of the same compound?
The value was −65* %.

And the “Duration of Immobility (% change from ctrl)” value (Behavioural Despair Test; 80 mg/kg ip)?
The value was −100* %.

Which “Nociception, Early Phase” value ([2]; 60 mg/kg po) does the source give for `CN1CCOC(c2ccccc2)c2ccccc2C1` (stereo not shown) [Nefopam, reference compound] here?
The value was −46%.

What about the “Nociception, Late Phase” value ([2]; 60 mg/kg po) of the same compound?
The value was −26%.

And the “Nociception, Early Phase” value ([2]; 100 mg/kg po)?
The value was −76%*.

What about the “Nociception, Late Phase” value ([2]; 100 mg/kg po) of the same compound?
Its value is −68%*.

And the “% Reduction in no of retches/vomits” value [3]?
The value was 96%*.
